Where two headings read alike, the source gives them in different places. Marks after values point to notes of the source that are not given here.
How the values were obtained:
[1] = Pharmacokinetics of insulin aspart (plasma IAsp) during euglycemic clamp study; assay type: in vivo, healthy Chinese males; settings: for t1/2: healthy Chinese males, single 0.2 U/kg s.c., fasted, plasma IAsp by UPLC-MS/MS, arithmetic mean (SD), N = 30; for Tmax: sc
Source text: (§1) There was a phase I, single-site, randomized, single-dose, two-period, crossover, euglycemic clamp study, evaluating the similarity in PK and PD of two IAsp products in healthy subjects (a new IAsp biosimilar RD10046 by HEC Pharm vs. NovoRapid by Novo Nordisk). In this study, subjects were randomly allocated to one of two treatment sequences (Fig. 1), in which they received 0.2 units/kg s.c. doses of two different IAsp products (as listed above) on two occasions.
(§2) Subjects were admitted to the phrase I unit on day-1 of each treatment period. On day 1, subjects received a single dose of the IAsp biosimilar RD10046 or NovoRapid after an overnight fast of at least 10 h, and a euglycemic clamp procedure that lasted up to 10 h postdose was performed. Subjects were discharged when they had had carbohydrates at the end of the euglycemic clamp. An interval of 7–14 days existed between the two doses.
(§3) The euglycemic clamp study was performed after inserting two catheters (an antecubital venous catheter for infusing 20% dextrose and a retrograde venous catheter in the hand heated in a box at 55–65℃ for measuring blood glucose). After collecting the basal blood glucose level [defined as the mean of the glucose measurement of several times (− 60, − 30, − 20, − 10 min) before dosing], the subjects received a 0.2 U/kg dose of NovoRapid or RD10046 by s.c. injection into a lifted abdominal skin-fold. Blood samples were obtained at the bedside for immediate determination of whole blood glucose concentrations and then monitored every 5 min from 0 to 240 min and every 10 min from 240 to 600 min after dosing. During the euglycemic clamp, the GIR was varied as necessary to maintain the blood glucose concentration within approximately ± 10% of the target level (defined as 0.28 mmol/L below the subject’s basal glucose level). The investigator made the GIR adjustment based on glucose measurements and experience. If the GIR fell to zero for at least 30 min, the clamp was discontinued. A 4-mL blood sample was collected at the following points for analysis of C-peptide and IAsp concentration: − 30, 0 (before dosing), 10, 20, 30, 40, 50, 60, 90, 120, 150, 180, 210, 240, 270, 300, 360, 420, 480 and 600 min. The baseline of C-peptide was defined as the mean value of two measurements at − 30 and 0 min.
(§4) Whole blood glucose concentrations were tested with a glucose analyzer (Biosen C_line GP+, Neckar Healthcare. Co. Ltd., Magdeburg, Germany) using an automated glucose oxidase technique. Serum C-peptide levels were analyzed using an ELISA (Cat. No. 80‐CPTHU‐E01.1; ALPCO, Salem, NH), and plasma IAsp concentrations were assessed by means of a validated, ultra-performance liquid chromatography-tandem mass spectrometry (UPLC-MS/MS) method at Covance Laboratories in Shanghai. The ranges of quantification were 20–3000 pmol/L for C-peptide and 0.2–10 ng/mL for IAsp.
The primary endpoint parameters of PK were shown as follows derived from time-profiles of IAsp: (1) maximal concentration of IAsp (Cmax), (2) the AUC of IAsp from 0 to 10 h (AUCIAsp, 0-10h). The time of Cmax (Tmax) and terminal half-life (t1/2) were also recorded. Those parameters mentioned above were calculated by PKsolver (version 2.0)[26]. Log-transformed AUCIAsp,0–10h and Cmax were evaluated with a linear mixed-effects model including subject as a random effect with the period, sequence, and treatment as fixed effects. For each parameter, the difference in the LS means along with the 90% CIs was back-transformed to produce the ratio of geometric means and the CI comparing treatments. The pharmacokinetic similarity was to be concluded if the 90% CIs for both AUCIAsp,0–10h and Cmax were completely contained within the interval of 0.80–1.25.
(§5) Time-related PK/PD parameters were evaluated by a nonparametric approach based on the Hodges-Lehmann method.

[2] = test system: healthy Chinese males; test: Euglycemic clamp pharmacodynamics (glucose infusion rate); assay type: in vivo; settings: for Tearly,50% (time of half-maximum GIR before GIRmax) / Tlate,50% (time of half-maximum GIR after GIRmax) / Tonset (first time of blood glucose declining to target level, 0.28 mmol/L less than baseline) / tGIRmax (time of maximum glucose infusion rate) / AUCGIR,0–10h (total glucose infusion during the clamp) / GIRmax (maximum glucose infusion rate): healthy Chinese males, single 0.2 U/kg s.c., 10-h euglycemic clamp, N = 29 RD10046, 30 NovoRapid; for AUCGIR,0–10h (total glucose infusion during the clamp) / GIRmax (maximum glucose infusion rate): fasted, LOESS-smoothed GIR
Source text: as §1, §2, §3, §4
GIR profiles were smoothed by a locally weighted regression technique (LOESS, factor 0.10) using SAS software (version 9.4). The primary glucose-lowing effectiveness endpoints were the following parameters derived from the smoothed GIR profiles during the time interval from 0 to 10 h: (1) maximal GIR (GIRmax), (2) AUC of GIR from 0 to 10 h (AUCGIR, 0–10h). The time-related parameters including the time of GIRmax (tGIRmax), the onset of time (Tonset) (defined as the first time when BG declining at least 0.28 mmol/L from baseline), the time for GIR to rise from 0 to half of GIRmax (Tearly50%), and the time for GIR to decline from GIRmax to half of GIRmax (Tlate50%) were also recorded. A similar analysis was performed for GIRmax and AUCGIR, 0–10h.
as §5

[3] = test system: C-peptide; test: Serum C-peptide during euglycemic clamp (endogenous insulin secretion); assay type: in vivo; settings: healthy Chinese males, single 0.2 U/kg s.c., 10-h euglycemic clamp, ELISA, mean ± SD, N = 30
Procedure: The euglycemic clamp study was performed after inserting two catheters (an antecubital venous catheter for infusing 20% dextrose and a retrograde venous catheter in the hand heated in a box at 55–65℃ for measuring blood glucose). After collecting the basal blood glucose level [defined as the mean of the glucose measurement of several times (− 60, − 30, − 20, − 10 min) before dosing], the subjects received a 0.2 U/kg dose of NovoRapid or RD10046 by s.c. injection into a lifted abdominal skin-fold. Blood samples were obtained at the bedside for immediate determination of whole blood glucose concentrations and then monitored every 5 min from 0 to 240 min and every 10 min from 240 to 600 min after dosing. […]
as §4

[4] = test system: healthy Chinese males; test: Safety evaluation (treatment-emergent adverse events); assay type: in vivo; settings: all causalities, single 0.2 U/kg s.c., N = 30
Source text: The safety assessments included the vital signs, physical examination, laboratory tests (complete blood cell count, liver and renal function, urinalysis, etc.), 12-lead ECG, injection site reaction, hypoglycemia, and other AEs.

[5] = in vivo; cited from earlier work
Source text: (§6) The maximum observed drug concentration and total drug exposure were higher than those in the previous report, which might ...

[6] = test system: healthy Chinese males; settings: previous reports; cited from earlier work
Source text: as §6

| Substance | t1/2 [1] | Tmax ([1]; in vivo) | Tearly,50% (time of half-maximum GIR before GIRmax) ([2]; geometric mean (CV %)) | Tlate,50% (time of half-maximum GIR after GIRmax) ([2]; geometric mean (CV %)) | Tonset (first time of blood glucose declining to target level, 0.28 mmol/L less than baseline) ([2]; geometric mean (CV %)) | tGIRmax (time of maximum glucose infusion rate) ([2]; geometric mean (CV %)) | AUCGIR,0–10h (total glucose infusion during the clamp) ([2]; arithmetic mean) [mg/kg] | GIRmax (maximum glucose infusion rate) ([2]; arithmetic mean) [mg/kg/min] | AUCGIR,0–10h (total glucose infusion during the clamp) ([2]; geometric mean (CV %)) | GIRmax (maximum glucose infusion rate) ([2]; geometric mean (CV %)) | C-peptide suppression after injection (reduction from baseline) [3] [%] | also measured |
| --- | --- | --- | --- | --- | --- | --- | --- | --- | --- | --- | --- | --- |
| insulin aspart [NovoRapid] | 38.0 (9.38) min | 50.2 (30.2,75.3) min | 38 (22) min | 226 (17) min | 15 (23) min | 104 (26) min | 1594 | 7.84 | 1542 (27) mg/kg | 7.64 (22) mg/kg/min | 30.7 ± 13.3 | TEAE Blood bilirubin increased: number of AEs (number of subjects with AEs) [4]: 1 (1); Tmax [5]: 48 to 70 min; GIRmax [6]: 6 to 9 mg/kg/min; total glucose infusion [6]: 1300 to 1500 mg/kg |
| insulin aspart [RD10046] | 39.2 (13.1) min | 50.3 (20.4,60.9) min | 38 (21) min | 227 (21) min | 16 (28) min | 113 (33) min | 1558 | 7.65 | 1493 (31) mg/kg | 7.44 (23) mg/kg/min | 30.2 ± 14.7 | AUCIAsp,0–10h, ratio of LS means (RD10046 divided by NovoRapid) ([1]; in vivo): 1.02^a; AUCIAsp,0–∞, ratio of LS means (RD10046 divided by NovoRapid) ([1]; in vivo): 1.02; Cmax, ratio of LS means (RD10046 divided by NovoRapid) ([1]; in vivo): 1.01^a; AUCGIR,0–10h, ratio of LS means (RD10046 divided by NovoRapid) ([2]; 90% CI in next column): 0.97^a; GIRmax, ratio of LS means (RD10046 divided by NovoRapid) ([2]; 90% CI in next column): 0.98^a; Tearly,50%, difference between medians (RD10046 - NovoRapid) ([2]; Hodges-Lehmann method): 0.13^b min; Tlate,50%, difference between medians (RD10046 - NovoRapid) ([2]; Hodges-Lehmann method): 0.39^b min; Tonset, difference between medians (RD10046 - NovoRapid) ([2]; Hodges-Lehmann method): 0^b min; tGIRmax, difference between medians (RD10046 - NovoRapid) ([2]; Hodges-Lehmann method): 15^b min; TEAE Electrocardiogram high voltage: number of AEs (number of subjects with AEs) [4]: 1 (1); TEAE Hyperuricemia: number of AEs (number of subjects with AEs) [4]: 1 (1); TEAE Induration: number of AEs (number of subjects with AEs) [4]: 1 (1); TEAE Pain in extremity: number of AEs (number of subjects with AEs) [4]: 1 (1); TEAE Platelet count increased: number of AEs (number of subjects with AEs) [4]: 1 (1); TEAE Refraction disorder: number of AEs (number of subjects with AEs) [4]: 1 (1) |

From article PMC8096952, “Similar pharmacokinetics and pharmacodynamics of a new biosimilar and reference insulin aspart in healthy Chinese males” (Scientific Reports, 2021)
